In paper PMC9127750, “Structure-based design of CDC42 effector interaction inhibitors for the treatment of cancer” (Cell reports, 2022):
Several values for one entry are separate records, joined by “and”; a condition that tells them apart may be missing. Equal values may be shown once.

System: WM3248 melanoma cells, 486 antibodies
Assay: Reverse phase protein arrays (RPPA)
Assay type: cell-based, Human
Description: Pellets were snap frozen in liquid nitrogen and shipped to MD Anderson Cancer Center core RPPA facility for RPPA analysis (Table S5). Three biological replicates for each sample were generated.
Nomenclatures on the RPPA heatmaps: name_of_antibody.species_of_antibody.status_of_antibody. V - antibody validated; C - validation of antibody in progress; Q - antibody nonspecific; E – under evaluation; antibodies raised in M - mouse, G - goat, R - rabbit, or T - rat.

[1] = Norm_20: replicates 1-3 and Average, relative to 0
[2] = Norm_20, replicates 1-3 and Average, relative to Norm_0

Structure (SMILES): CN(C)c1cccc(Nc2cc(-c3ccccc3)nc(C3CCNCC3)n2)c1 [ARN22089, N1,N1-dimethyl-N3-(6-phenyl-2-(piperidin-4-yl)pyrimidin-4-yl)benzene-1,3-diamine]
- Shc_pY317.R.C normalized RPPA signal [1]: 0.757 and 1.584 and 1.301 and 1.214
- Slfn11.G.C normalized RPPA signal [1]: 1.108 and 1.363 and 1.188
- Smac.M.Q normalized RPPA signal [1]: 0.931 and 0.960 and 0.983 and 0.958
- Smad1.R.V normalized RPPA signal [1]: 0.987 and 0.977 and 1.047 and 1.004
- Smad3.R.V normalized RPPA signal [1]: 1.165 and 1.119 and 1.154
- Smad4.R.V normalized RPPA signal [1]: 1.296 and 1.077 and 0.835
- Snail.M.Q normalized RPPA signal [1]: 0.600 and 0.686 and 0.609 and 0.632
- Sox2.R.V normalized RPPA signal [1]: 1.375 and 1.408 and 0.996 and 1.260
- Sox17.R.V normalized RPPA signal [1]: 0.910 and 0.971 and 1.024 and 0.968
- Src.M.V normalized RPPA signal [1]: 0.856 and 0.994 and 0.844 and 0.898
- Src_pY416.R.V normalized RPPA signal [1]: 0.922 and 0.983 and 0.992
- Src_pY527.R.V normalized RPPA signal [1]: 1.101 and 1.696 and 1.289
- Stat1_pY701.R.V normalized RPPA signal [1]: 0.978 and 0.992 and 1.003
- Stat3.R.C normalized RPPA signal [1]: 0.916 and 0.933 and 0.984 and 0.944
- Stat3_pY705.R.C normalized RPPA signal [1]: 1.624 and 1.373 and 1.082 and 1.360
- Stat5a.R.V normalized RPPA signal [1]: 0.918 and 1.001 and 1.032
- Stathmin.1.R.V normalized RPPA signal [1]: 1.002 and 0.917 and 0.896 and 0.939
- Syk.M.V normalized RPPA signal [1]: 0.729 and 0.896 and 0.950 and 0.859
- Synaptophysin.R.C normalized RPPA signal [1]: 1.010 and 0.835 and 0.914 and 0.920
- TAZ.R.V normalized RPPA signal [1]: 0.593 and 0.609 and 0.746
- TEAD.R.C normalized RPPA signal [1]: 0.753 and 0.847 and 1.189 and 0.929
- TFAM.R.V normalized RPPA signal [1]: 1.017 and 0.908 and 0.988
- TFRC.R.V normalized RPPA signal [1]: 0.954 and 0.936 and 0.905
- TIGAR.R.V normalized RPPA signal [1]: 1.016 and 1.029 (2×)
- TRAP1.M.V normalized RPPA signal [1]: 0.880 and 0.858 and 0.987 and 0.908
- TRIM24.R.C normalized RPPA signal [1]: 0.971 and 1.220 and 0.935
- TRIM25.R.C normalized RPPA signal [1]: 0.761 and 0.842 and 1.250
- TRIP13.R.V normalized RPPA signal [1]: 0.937 and 1.026 and 0.990 and 0.984
- Tau.M.C normalized RPPA signal [1]: 1.361 and 0.904 and 1.112
- Transglutaminase.M.V normalized RPPA signal [1]: 0.939 and 1.702 and 2.431 and 1.691
- A.Raf.R.V RPPA signal, normalized [2]: 1.150 and 0.931 and 1.016
- A.Raf_pS299.R.C RPPA signal, normalized [2]: 0.948 and 1.046 and 0.962 and 0.985
- ACC1.R.C RPPA signal, normalized [2]: 0.841 and 0.807 and 0.895
- ACC_pS79.R.V RPPA signal, normalized [2]: 1.085 and 0.894 and 1.442 and 1.140
- ACLY_pS455.R.V RPPA signal, normalized [2]: 0.968 and 1.117 and 1.143 and 1.076
- ACSL1.R.V RPPA signal, normalized [2]: 0.997 and 1.027 and 1.096
- ACVRL1.R.C RPPA signal, normalized [2]: 0.959 and 0.966 and 0.988
- ADAR1.M.V RPPA signal, normalized [2]: 1.103 and 1.393 and 0.980 and 1.159
- ALKBH5.R.V RPPA signal, normalized [2]: 1.265 and 1.161 and 1.050 and 1.159
- AMPK.a2_pS345.R.V RPPA signal, normalized [2]: 0.925 and 1.020 and 1.006
- AMPKa.R.C RPPA signal, normalized [2]: 0.976 and 1.132 and 1.050
- AMPKa_pT172.R.C RPPA signal, normalized [2]: 1.665 and 1.252 and 2.191 and 1.703
- AR.R.V RPPA signal, normalized [2]: 1.167 and 0.791 and 1.202 and 1.053
- ARID1A.R.C RPPA signal, normalized [2]: 2.135 and 2.023 and 0.945 and 1.701
- ASNS.R.V RPPA signal, normalized [2]: 1.259 and 1.098 (2×)
- ATM.R.V RPPA signal, normalized [2]: 0.728 and 0.823 and 1.123 and 0.891
- ATM_pS1981.R.V RPPA signal, normalized [2]: 0.946 and 1.124 and 1.011 and 1.027
- ATP5A.M.C RPPA signal, normalized [2]: 1.004 and 1.426 and 2.191 and 1.541
- ATP5H.R.V RPPA signal, normalized [2]: 1.249 and 1.351 and 1.098 and 1.232
- ATR.R.V RPPA signal, normalized [2]: 0.925 and 0.998 and 0.989
- ATRX.R.C RPPA signal, normalized [2]: 0.884 and 1.433 and 1.198 and 1.172
- ATR_pS428.R.C RPPA signal, normalized [2]: 0.919 and 0.961 and 1.020
- AceCS1.R.V RPPA signal, normalized [2]: 1.098 and 1.011 and 1.293 and 1.134
- Akt1.R.V RPPA signal, normalized [2]: 0.716 and 0.687 and 1.263 and 0.889
- Akt1_pS473.R.V RPPA signal, normalized [2]: 0.845 and 0.816 and 0.918
- Akt2.R.V RPPA signal, normalized [2]: 0.702 and 0.698 and 0.824
- Akt2_pS474.R.C RPPA signal, normalized [2]: 0.820 and 1.141 and 0.958
- Akt.R.V RPPA signal, normalized [2]: 0.842 and 0.873 and 1.113 and 0.943
- Akt_pS473.R.V RPPA signal, normalized [2]: 0.693 and 1.281 and 1.006
- Akt_pT308.R.V RPPA signal, normalized [2]: 1.208 and 0.954 and 1.057
- Ambra1_pS52.R.C RPPA signal, normalized [2]: 0.983 and 1.063 and 0.981 and 1.009
- Annexin.I.M.V RPPA signal, normalized [2]: 0.955 and 0.906 and 1.304 and 1.055
- Annexin.VII.M.V RPPA signal, normalized [2]: 0.988 and 0.859 and 0.972
- Atg3.R.V RPPA signal, normalized [2]: 1.054 and 0.860 and 1.003 and 0.972
- Atg4B.R.C RPPA signal, normalized [2]: 0.929 and 1.167 and 0.972 and 1.023
- Atg5.R.C RPPA signal, normalized [2]: 1.021 and 0.787 and 1.106 and 0.971
- Atg7.R.V RPPA signal, normalized [2]: 0.883 and 0.847 and 0.979 and 0.903
- Aurora.A.R.C RPPA signal, normalized [2]: 1.019 and 1.110 and 1.013
- Aurora.ABC_pT288_pT232_pT198.R.C RPPA signal, normalized [2]: 0.769 and 0.934
- Aurora.B.R.V RPPA signal, normalized [2]: 1.525 and 1.546 and 1.302 and 1.458
- Axl.R.V RPPA signal, normalized [2]: 0.924 and 0.799 and 1.335 and 1.019
- B7.H3.R.C RPPA signal, normalized [2]: 1.111 and 0.745 and 0.965 and 0.940
- B7.H4.R.C RPPA signal, normalized [2]: 0.904 and 0.914 and 0.952
- B.Raf.R.C RPPA signal, normalized [2]: 0.818 and 0.836 and 1.274 and 0.976
- B.Raf_pS445.R.V RPPA signal, normalized [2]: 0.809 and 0.807 and 1.065 and 0.893
- BAP1.M.V RPPA signal, normalized [2]: 0.987 and 0.925 and 1.001
- BCL2A1.R.V RPPA signal, normalized [2]: 0.937 and 1.262 and 1.127
- BMK1.Erk5_pT218_Y220.R.V RPPA signal, normalized [2]: 0.876 and 0.918 and 0.861 and 0.885
- BRCA1.M.C RPPA signal, normalized [2]: 1.226 and 1.030 and 1.116
- BRD4.R.V RPPA signal, normalized [2]: 1.775 and 1.486 and 0.963 and 1.408
- Bad_pS112.R.V RPPA signal, normalized [2]: 1.169
- Bak.R.C RPPA signal, normalized [2]: 1.030 and 0.930 and 1.021 and 0.994
